{"source": "patent US11591604B2", "about": "“Gene expression in Bacteroides” (Massachusetts Institute of Technology, priority 2015, dated 2023)", "data": [{"test_system": "NanoLuc", "assay": "NanoLuc luciferase reporter expression from constitutive promoters and RBSs integrated with pNBU2", "type": "cell-based, B. thetaiotaomicron", "conditions": "RBS combined with promoter PBT1311, NanoLuc reporter, three biological replicates", "units": {"Average Luminescence (RLU/CFU)": "RLU/CFU"}, "values": [{"substance": "C8: RBS, SEQ ID NO: 21 (DNA TCCCGCATTTTAAAATAAAATAAATTATTTATCGAATTAAACGAAT; chemistry not fully specified)", "Average Luminescence (RLU/CFU)": 0.03132}, {"substance": "C9: RBS, SEQ ID NO: 23 (DNA TCCCGCATTTTAAAATAAAATAAATTATTGCTTTAATTAAACGAAT; chemistry not fully specified)", "Average Luminescence (RLU/CFU)": 0.02988}, {"substance": "C10: RBS, SEQ ID NO: 31 (DNA TCCCGCATTTTAAAATAAAATAAATTATTATTTTAATTAAACGAAT; chemistry not fully specified)", "Average Luminescence (RLU/CFU)": 0.02583}, {"substance": "C11: RBS, SEQ ID NO: 36 (DNA TCCCGCATTTTAAAATAAAATAAATTATTTTTTTACTTAAACGAAT; chemistry not fully specified)", "Average Luminescence (RLU/CFU)": 0.02223}, {"substance": "C12: RBS, SEQ ID NO: 37 (DNA TCCCGCATTTTAAAATAAAATAAATTATTAGTTTAGTTAAACGAAT; chemistry not fully specified)", "Average Luminescence (RLU/CFU)": 0.02151}, {"substance": "C13: RBS, SEQ ID NO: 38 (DNA TCCCGCATTTTAAAATAAAATAAATTATTAATTTAATTAAACGAAT; chemistry not fully specified)", "Average Luminescence (RLU/CFU)": 0.02149}, {"substance": "C14: RBS, SEQ ID NO: 40 (DNA TCCCGCATTTTAAAATAAAATAAATTATTTCTTTACTTAAACGAAT; chemistry not fully specified)", "Average Luminescence (RLU/CFU)": 0.02123}, {"substance": "C15: RBS, SEQ ID NO: 41 (DNA TCCCGCATTTTAAAATAAAATAAATTATTTCTTTAATTAAACGAAT; chemistry not fully specified)", "Average Luminescence (RLU/CFU)": 0.02056}, {"substance": "C16: RBS, SEQ ID NO: 43 (DNA TCCCGCATTTTAAAATAAAATAAATTATTAGTTTAATTAAACGAAT; chemistry not fully specified)", "Average Luminescence (RLU/CFU)": 0.0203}, {"substance": "C17: RBS, SEQ ID NO: 45 (DNA TCCCGCATTTTAAAATAAAATAAATTATTAGTTTATTTAAACGAAT; chemistry not fully specified)", "Average Luminescence (RLU/CFU)": 0.01871}, {"substance": "C18: RBS, SEQ ID NO: 47 (DNA TCCCGCATTTTAAAATAAAATAAATTATTGTTTTACTTAAACGAAT; chemistry not fully specified)", "Average Luminescence (RLU/CFU)": 0.01851}, {"substance": "C19: RBS, SEQ ID NO: 48 (DNA TCCCGCATTTTAAAATAAAATAAATTATTGCTTTAGTTAAACGAAT; chemistry not fully specified)", "Average Luminescence (RLU/CFU)": 0.01835}, {"substance": "C20: RBS, SEQ ID NO: 51 (DNA TCCCGCATTTTAAAATAAAATAAATTATTGTTTTAGTTAAACGAAT; chemistry not fully specified)", "Average Luminescence (RLU/CFU)": 0.01758}, {"substance": "C21: RBS, SEQ ID NO: 54 (DNA TCCCGCATTTTAAAATAAAATAAATTATTGGTTTAATTAAACGAAT; chemistry not fully specified)", "Average Luminescence (RLU/CFU)": 0.01602}, {"substance": "C22: RBS, SEQ ID NO: 57 (DNA TCCCGCATTTTAAAATAAAATAAATTATTGTTTTAATTAAACGAAT; chemistry not fully specified)", "Average Luminescence (RLU/CFU)": 0.01508}, {"substance": "C23: RBS, SEQ ID NO: 60 (DNA TCCCGCATTTTAAAATAAAATAAATTATTGATTTACTTAAACGAAT; chemistry not fully specified)", "Average Luminescence (RLU/CFU)": 0.01469}, {"substance": "C24: RBS, SEQ ID NO: 67 (DNA TCCCGCATTTTAAAATAAAATAAATTATTTCTTTATTTAAACGAAT; chemistry not fully specified)", "Average Luminescence (RLU/CFU)": 0.01287}, {"substance": "C25: RBS, SEQ ID NO: 72 (DNA TCCCGCATTTTAAAATAAAATAAATTATTATTTTACTTAAACGAAT; chemistry not fully specified)", "Average Luminescence (RLU/CFU)": 0.01148}, {"substance": "C26: RBS, SEQ ID NO: 75 (DNA TCCCGCATTTTAAAATAAAATAAATTATTTATTTACTTAAACGAAT; chemistry not fully specified)", "Average Luminescence (RLU/CFU)": 0.009775}, {"substance": "C27: RBS, SEQ ID NO: 76 (DNA TCCCGCATTTTAAAATAAAATAAATTATTTTTTTAGTTAAACGAAT; chemistry not fully specified)", "Average Luminescence (RLU/CFU)": 0.009752}, {"substance": "C28: RBS, SEQ ID NO: 81 (DNA TCCCGCATTTTAAAATAAAATAAATTATTCATTTATTTAAACGAAT; chemistry not fully specified)", "Average Luminescence (RLU/CFU)": 0.009278}, {"substance": "C29: RBS, SEQ ID NO: 86 (DNA TCCCGCATTTTAAAATAAAATAAATTATTTTTTTATTTAAACGAAT; chemistry not fully specified)", "Average Luminescence (RLU/CFU)": 0.008233}, {"substance": "C30: RBS, SEQ ID NO: 88 (DNA TCCCGCATTTTAAAATAAAATAAATTATTTATTTATTTAAACGAAT; chemistry not fully specified)", "Average Luminescence (RLU/CFU)": 0.008085}, {"substance": "C31: RBS, SEQ ID NO: 90 (DNA TCCCGCATTTTAAAATAAAATAAATTATTTATTTACTTAAACGAAT; chemistry not fully specified)", "Average Luminescence (RLU/CFU)": 0.007861}, {"substance": "C32: RBS, SEQ ID NO: 91 (DNA TCCCGCATTTTAAAATAAAATAAATTATTGCTTTATTTAAACGAAT; chemistry not fully specified)", "Average Luminescence (RLU/CFU)": 0.007717}, {"substance": "C33: RBS, SEQ ID NO: 93 (DNA TCCCGCATTTTAAAATAAAATAAATTATTAGTTTACTTAAACGAAT; chemistry not fully specified)", "Average Luminescence (RLU/CFU)": 0.006912}, {"substance": "C34: RBS, SEQ ID NO: 96 (DNA TCCCGCATTTTAAAATAAAATAAATTATTCTTTTACTTAAACGAAT; chemistry not fully specified)", "Average Luminescence (RLU/CFU)": 0.006727}, {"substance": "C35: RBS, SEQ ID NO: 99 (DNA TCCCGCATTTTAAAATAAAATAAATTATTCCTTTAATTAAACGAAT; chemistry not fully specified)", "Average Luminescence (RLU/CFU)": 0.005815}, {"substance": "C36: RBS, SEQ ID NO: 100 (DNA TCCCGCATTTTAAAATAAAATAAATTATTACTTTATTTAAACGAAT; chemistry not fully specified)", "Average Luminescence (RLU/CFU)": 0.005692}, {"substance": "C37: RBS, SEQ ID NO: 102 (DNA TCCCGCATTTTAAAATAAAATAAATTATTGGTTTAGTTAAACGAAT; chemistry not fully specified)", "Average Luminescence (RLU/CFU)": 0.005598}, {"substance": "C38: RBS, SEQ ID NO: 108 (DNA TCCCGCATTTTAAAATAAAATAAATTATTCTTTTATTTAAACGAAT; chemistry not fully specified)", "Average Luminescence (RLU/CFU)": 0.004774}, {"substance": "C39: RBS, SEQ ID NO: 109 (DNA TCCCGCATTTTAAAATAAAATAAATTATTCCTTTATTTAAACGAAT; chemistry not fully specified)", "Average Luminescence (RLU/CFU)": 0.004534}, {"substance": "C40: RBS, SEQ ID NO: 115 (DNA TCCCGCATTTTAAAATAAAATAAATTATTCCTTTACTTAAACGAAT; chemistry not fully specified)", "Average Luminescence (RLU/CFU)": 0.003759}, {"substance": "C41: RBS, SEQ ID NO: 117 (DNA TCCCGCATTTTAAAATAAAATAAATTATTGGTTTATTTAAACGAAT; chemistry not fully specified)", "Average Luminescence (RLU/CFU)": 0.003107}, {"substance": "C42: RBS, SEQ ID NO: 119 (DNA TCCCGCATTTTAAAATAAAATAAATTATTCTTTTAGTTAAACGAAT; chemistry not fully specified)", "Average Luminescence (RLU/CFU)": 0.002801}, {"substance": "C43: RBS, SEQ ID NO: 120 (DNA TCCCGCATTTTAAAATAAAATAAATTATTTCTTTAGTTAAACGAAT; chemistry not fully specified)", "Average Luminescence (RLU/CFU)": 0.00264}, {"substance": "C44: RBS, SEQ ID NO: 122 (DNA TCCCGCATTTTAAAATAAAATAAATTATTTGTTTACTTAAACGAAT; chemistry not fully specified)", "Average Luminescence (RLU/CFU)": 0.00249}, {"substance": "C45: RBS, SEQ ID NO: 124 (DNA TCCCGCATTTTAAAATAAAATAAATTATTCATTTAGTTAAACGAAT; chemistry not fully specified)", "Average Luminescence (RLU/CFU)": 0.0024}, {"substance": "C46: RBS, SEQ ID NO: 125 (DNA TCCCGCATTTTAAAATAAAATAAATTATTTGTTTAGTTAAACGAAT; chemistry not fully specified)", "Average Luminescence (RLU/CFU)": 0.001945}, {"substance": "C47: RBS, SEQ ID NO: 126 (DNA TCCCGCATTTTAAAATAAAATAAATTATTTGTTTAATTAAACGAAT; chemistry not fully specified)", "Average Luminescence (RLU/CFU)": 0.00189}, {"substance": "C48: RBS, SEQ ID NO: 128 (DNA TCCCGCATTTTAAAATAAAATAAATTATTCCTTTAGTTAAACGAAT; chemistry not fully specified)", "Average Luminescence (RLU/CFU)": 0.001758}, {"substance": "C49: RBS, SEQ ID NO: 129 (DNA TCCCGCATTTTAAAATAAAATAAATTATTGTTTTATTTAAACGAAT; chemistry not fully specified)", "Average Luminescence (RLU/CFU)": 0.001598}, {"substance": "C50: RBS, SEQ ID NO: 132 (DNA TCCCGCATTTTAAAATAAAATAAATTATTTGTTTATTTAAACGAAT; chemistry not fully specified)", "Average Luminescence (RLU/CFU)": 0.001261}, {"substance": "C51: RBS, SEQ ID NO: 136 (DNA TCCCGCATTTTAAAATAAAATAAATTATTATTTTATTTAAACGAAT; chemistry not fully specified)", "Average Luminescence (RLU/CFU)": 0.0006273}, {"substance": "C52: RBS, SEQ ID NO: 138 (DNA TCCCGCATTTTAAAATAAAATAAATTATTGGTTTACTTAAACGAAT; chemistry not fully specified)", "Average Luminescence (RLU/CFU)": 0.000163}, {"substance": "C53: RBS, SEQ ID NO: 140 (DNA TCCCGCATTTTAAAATAAAATAAATTATTCGTTTAATTAAACGAAT; chemistry not fully specified)", "Average Luminescence (RLU/CFU)": "7.299E-05"}, {"substance": "C54: RBS, SEQ ID NO: 141 (DNA TCCCGCATTTTAAAATAAAATAAATTATTCGTTTATTTAAACGAAT; chemistry not fully specified)", "Average Luminescence (RLU/CFU)": "3.651E-05"}]}, {"test_system": "NanoLuc", "assay": "NanoLuc luciferase reporter expression from constitutive promoters and RBSs integrated with pNBU2", "type": "cell-based, B. thetaiotaomicron", "conditions": "set of 8 RBSs, under control of PBT1311, NanoLuc reporter", "units": {"Expression Level (RLU/CFU)": "RLU/CFU"}, "values": [{"substance": "C33: RBS, SEQ ID NO: 93 (DNA TCCCGCATTTTAAAATAAAATAAATTATTAGTTTACTTAAACGAAT; chemistry not fully specified)", "Expression Level (RLU/CFU)": "6.91E-03"}, {"substance": "C51: RBS, SEQ ID NO: 136 (DNA TCCCGCATTTTAAAATAAAATAAATTATTATTTTATTTAAACGAAT; chemistry not fully specified)", "Expression Level (RLU/CFU)": "6.27E-04"}, {"substance": "C52: RBS, SEQ ID NO: 138 (DNA TCCCGCATTTTAAAATAAAATAAATTATTGGTTTACTTAAACGAAT; chemistry not fully specified)", "Expression Level (RLU/CFU)": "1.63E-04"}, {"substance": "C53: RBS, SEQ ID NO: 140 (DNA TCCCGCATTTTAAAATAAAATAAATTATTCGTTTAATTAAACGAAT; chemistry not fully specified)", "Expression Level (RLU/CFU)": "7.30E-05"}]}]}
